Measurements: paper PMC7932537, “Quantitative profiling of protease specificity” (PLoS Computational Biology, 2021)

Key:
MMP-9 [1] = test: Substrate phage display with NGS: relative probability (RP) of P3-P1' tetramer clusters; type: biochemical, human; settings: MMP9; RP of the substrate's P3-P1' tetramer, substrate phage display with NGS;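 further: ratio of tetramer probability after protease selection to that in naive phage library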
MMP-2 = biological target: T1, MMP-2 (Homo sapiens, UniProt P08253); test: K(obs) of individual phage substrates (set of 1369); type: biochemical; settings: MMP2; individual phage substrate from the set of 1369 peptides; hyphen in the sequence marks the cleavage position
T1 sequence (P08253 110-660): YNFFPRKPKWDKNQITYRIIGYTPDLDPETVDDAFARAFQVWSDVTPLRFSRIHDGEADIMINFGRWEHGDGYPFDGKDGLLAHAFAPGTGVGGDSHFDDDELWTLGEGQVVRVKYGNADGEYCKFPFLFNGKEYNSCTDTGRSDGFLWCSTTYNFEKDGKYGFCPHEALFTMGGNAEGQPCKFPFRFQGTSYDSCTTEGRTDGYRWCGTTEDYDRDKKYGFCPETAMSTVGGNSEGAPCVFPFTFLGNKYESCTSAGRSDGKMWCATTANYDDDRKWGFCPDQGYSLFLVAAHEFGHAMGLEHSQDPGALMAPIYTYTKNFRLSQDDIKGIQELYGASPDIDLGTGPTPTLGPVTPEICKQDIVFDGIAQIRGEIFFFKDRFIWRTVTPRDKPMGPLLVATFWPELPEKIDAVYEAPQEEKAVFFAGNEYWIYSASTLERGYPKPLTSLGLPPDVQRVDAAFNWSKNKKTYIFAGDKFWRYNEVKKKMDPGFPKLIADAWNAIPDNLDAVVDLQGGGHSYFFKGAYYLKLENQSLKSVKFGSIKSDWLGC

MMP-9 [2] = biological target: MMP-9 (Homo sapiens, UniProt P14780); test: as above; type: biochemical; settings: MMP9; individual phage substrate of the set of 1369 peptides; dash in sequence marks cleavage position
MMP-9 (Homo sapiens, UniProt P14780), sequence (P14780 94-707): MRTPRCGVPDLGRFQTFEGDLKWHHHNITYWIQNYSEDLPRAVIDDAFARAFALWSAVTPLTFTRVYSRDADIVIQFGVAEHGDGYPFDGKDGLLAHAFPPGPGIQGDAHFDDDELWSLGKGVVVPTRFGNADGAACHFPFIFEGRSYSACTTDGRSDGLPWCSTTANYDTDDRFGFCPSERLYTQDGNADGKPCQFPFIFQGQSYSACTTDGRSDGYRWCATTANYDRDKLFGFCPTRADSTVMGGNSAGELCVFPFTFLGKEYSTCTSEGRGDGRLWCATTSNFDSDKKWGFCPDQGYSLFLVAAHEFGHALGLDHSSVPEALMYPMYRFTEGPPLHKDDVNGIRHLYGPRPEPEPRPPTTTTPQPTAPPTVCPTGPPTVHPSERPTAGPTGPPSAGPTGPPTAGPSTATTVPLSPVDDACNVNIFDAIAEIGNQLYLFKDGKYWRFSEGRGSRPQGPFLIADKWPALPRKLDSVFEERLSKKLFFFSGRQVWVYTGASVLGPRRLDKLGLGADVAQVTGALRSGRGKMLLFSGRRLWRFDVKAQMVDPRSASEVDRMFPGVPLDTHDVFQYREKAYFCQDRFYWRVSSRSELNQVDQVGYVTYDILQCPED

Substance: RRPSA-LTASG
- relative probability (RP) (MMP-9 [1]): 47.6113
- Kobs (MMP-2): 12792.1 M⁻¹ s⁻¹
- Kobs (MMP-9 [2]): 10866.7 M⁻¹ s⁻¹

Substance: RRPVA-YTASG
- relative probability (RP) (MMP-9 [1]): 47.2844
- Kobs (MMP-2): 12792.1 M⁻¹ s⁻¹
- Kobs (MMP-9 [2]): 12792.1 M⁻¹ s⁻¹

Substance: RTPKG-LTASG
- relative probability (RP) (MMP-9 [1]): 48.4124
- Kobs (MMP-2): 12792.1 M⁻¹ s⁻¹
- Kobs (MMP-9 [2]): 12792.1 M⁻¹ s⁻¹

Substance: RVPVP-MTASG
- relative probability (RP) (MMP-9 [1]): 46.3561
- Kobs (MMP-2): 2038.8 M⁻¹ s⁻¹
- Kobs (MMP-9 [2]): 9740.44 M⁻¹ s⁻¹

Substance: RVVAN-LTASG
- relative probability (RP) (MMP-9 [1]): 32.1971
- Kobs (MMP-2): 12792.1 M⁻¹ s⁻¹
- Kobs (MMP-9 [2]): 4922.1 M⁻¹ s⁻¹

Substance: SCVRM-MTASG
- relative probability (RP) (MMP-9 [1]): 24.5728
- Kobs (MMP-2): 1373.05 M⁻¹ s⁻¹
- Kobs (MMP-9 [2]): 1561.44 M⁻¹ s⁻¹

Substance: SDVRF-LTASG
- relative probability (RP) (MMP-9 [1]): 26.3541
- Kobs (MMP-2): 9740.44 M⁻¹ s⁻¹
- Kobs (MMP-9 [2]): 5889.62 M⁻¹ s⁻¹

Substance: SGALN-FYSTA
- relative probability (RP) (MMP-9 [1]): 19.1713
- Kobs (MMP-2): 2761.81 M⁻¹ s⁻¹
- Kobs (MMP-9 [2]): 8941.32 M⁻¹ s⁻¹

Substance: SGASN-LRGTA
- relative probability (RP) (MMP-9 [1]): 27.6194
- Kobs (MMP-2): 12792.1 M⁻¹ s⁻¹
- Kobs (MMP-9 [2]): 12792.1 M⁻¹ s⁻¹

Substance: SGAYN-FQATA
- relative probability (RP) (MMP-9 [1]): 19.0941
- Kobs (MMP-2): 3438.54 M⁻¹ s⁻¹
- Kobs (MMP-9 [2]): 12792.1 M⁻¹ s⁻¹

Substance: SGISA-LRKTA
- relative probability (RP) (MMP-9 [1]): 16.3812
- Kobs (MMP-2): 6688.74 M⁻¹ s⁻¹
- Kobs (MMP-9 [2]): 0 M⁻¹ s⁻¹

Substance: SGISW-MRHTA
- relative probability (RP) (MMP-9 [1]): 21.4
- Kobs (MMP-2): 7815.03 M⁻¹ s⁻¹
- Kobs (MMP-9 [2]): 2476.66 M⁻¹ s⁻¹

Substance: SGPAS-FSVTA
- relative probability (RP) (MMP-9 [1]): 30.2578
- Kobs (MMP-2): 12792.1 M⁻¹ s⁻¹
- Kobs (MMP-9 [2]): 2344.36 M⁻¹ s⁻¹

Substance: SGPAS-LLNTA
- relative probability (RP) (MMP-9 [1]): 46.2982
- Kobs (MMP-2): 12792.1 M⁻¹ s⁻¹
- Kobs (MMP-9 [2]): 9740.44 M⁻¹ s⁻¹

Substance: SGPAS-VRNTA
- relative probability (RP) (MMP-9 [1]): 25.8589
- Kobs (MMP-2): 12792.1 M⁻¹ s⁻¹
- Kobs (MMP-9 [2]): 2837.92 M⁻¹ s⁻¹

Substance: SGPFS-NRATA
- relative probability (RP) (MMP-9 [1]): 1.097
- Kobs (MMP-2): 292.668 M⁻¹ s⁻¹
- Kobs (MMP-9 [2]): 2687.73 M⁻¹ s⁻¹

Substance: SGPGA-MMFTA
- relative probability (RP) (MMP-9 [1]): 36.3159
- Kobs (MMP-2): 12792.1 M⁻¹ s⁻¹
- Kobs (MMP-9 [2]): 5090.5 M⁻¹ s⁻¹

Substance: SGPHY-LMMTA
- relative probability (RP) (MMP-9 [1]): 37.3972
- Kobs (MMP-2): 6396.07 M⁻¹ s⁻¹
- Kobs (MMP-9 [2]): 6688.74 M⁻¹ s⁻¹

Substance: SGPKF-LVMTA
- relative probability (RP) (MMP-9 [1]): 42.7484
- Kobs (MMP-2): 1981.53 M⁻¹ s⁻¹
- Kobs (MMP-9 [2]): 12792.1 M⁻¹ s⁻¹

Substance: SGPKG-MRMTA
- relative probability (RP) (MMP-9 [1]): 48.8441
- Kobs (MMP-2): 9740.44 M⁻¹ s⁻¹
- Kobs (MMP-9 [2]): 12792.1 M⁻¹ s⁻¹

Substance: SGPKL-LTASG
- relative probability (RP) (MMP-9 [1]): 35.7561
- Kobs (MMP-2): 5090.5 M⁻¹ s⁻¹
- Kobs (MMP-9 [2]): 12792.1 M⁻¹ s⁻¹

Substance: SGPKL-LYGTA
- relative probability (RP) (MMP-9 [1]): 35.7561
- Kobs (MMP-2): 4205.91 M⁻¹ s⁻¹
- Kobs (MMP-9 [2]): 12792.1 M⁻¹ s⁻¹

Substance: SGPKQ-LRVTA
- relative probability (RP) (MMP-9 [1]): 43.3387
- Kobs (MMP-2): 12792.1 M⁻¹ s⁻¹
- Kobs (MMP-9 [2]): 12792.1 M⁻¹ s⁻¹

Substance: SGPKW-MRHTA
- relative probability (RP) (MMP-9 [1]): 51.5185
- Kobs (MMP-2): 2409.72 M⁻¹ s⁻¹
- Kobs (MMP-9 [2]): 4922.1 M⁻¹ s⁻¹

Substance: SGPLK-ITRTA
- relative probability (RP) (MMP-9 [1]): 38.9391
- Kobs (MMP-2): 0 M⁻¹ s⁻¹
- Kobs (MMP-9 [2]): 2837.92 M⁻¹ s⁻¹

Substance: SGPQW-MINTA
- relative probability (RP) (MMP-9 [1]): 45.9264
- Kobs (MMP-2): 6131.32 M⁻¹ s⁻¹
- Kobs (MMP-9 [2]): 4613.14 M⁻¹ s⁻¹

Substance: SGPRA-VSATA
- relative probability (RP) (MMP-9 [1]): 40.8515
- Kobs (MMP-2): 12792.1 M⁻¹ s⁻¹
- Kobs (MMP-9 [2]): 12792.1 M⁻¹ s⁻¹

Substance: SGPRD-ILATA
- relative probability (RP) (MMP-9 [1]): 41.2501
- Kobs (MMP-2): 12792.1 M⁻¹ s⁻¹
- Kobs (MMP-9 [2]): 12792.1 M⁻¹ s⁻¹

Substance: SGPRF-LIGTA
- relative probability (RP) (MMP-9 [1]): 42.4535
- Kobs (MMP-2): 3964.21 M⁻¹ s⁻¹
- Kobs (MMP-9 [2]): 6131.32 M⁻¹ s⁻¹

Substance: SGPRF-LLDTA
- relative probability (RP) (MMP-9 [1]): 42.4535
- Kobs (MMP-2): 5889.62 M⁻¹ s⁻¹
- Kobs (MMP-9 [2]): 7386.83 M⁻¹ s⁻¹

Substance: SGPRG-MKTTA
- relative probability (RP) (MMP-9 [1]): 47.6962
- Kobs (MMP-2): 1418.96 M⁻¹ s⁻¹
- Kobs (MMP-9 [2]): 7815.03 M⁻¹ s⁻¹

Substance: SGPRG-VTVTA
- relative probability (RP) (MMP-9 [1]): 42.1832
- Kobs (MMP-2): 12792.1 M⁻¹ s⁻¹
- Kobs (MMP-9 [2]): 12792.1 M⁻¹ s⁻¹

Substance: SGPRL-YIGTA
- relative probability (RP) (MMP-9 [1]): 32.3351
- Kobs (MMP-2): 5667.28 M⁻¹ s⁻¹
- Kobs (MMP-9 [2]): 12792.1 M⁻¹ s⁻¹

Substance: SGPRN-LAVTA
- relative probability (RP) (MMP-9 [1]): 48.2698
- Kobs (MMP-2): 12792.1 M⁻¹ s⁻¹
- Kobs (MMP-9 [2]): 12792.1 M⁻¹ s⁻¹

Substance: SGPRN-YHGTA
- relative probability (RP) (MMP-9 [1]): 46.9938
- Kobs (MMP-2): 12792.1 M⁻¹ s⁻¹
- Kobs (MMP-9 [2]): 12792.1 M⁻¹ s⁻¹

Substance: SGPRQ-LSTTA
- relative probability (RP) (MMP-9 [1]): 43.5363
- Kobs (MMP-2): 12792.1 M⁻¹ s⁻¹
- Kobs (MMP-9 [2]): 12792.1 M⁻¹ s⁻¹

Substance: SGPRS-HRVTA
- relative probability (RP) (MMP-9 [1]): 23.1314
- Kobs (MMP-2): 3637.04 M⁻¹ s⁻¹
- Kobs (MMP-9 [2]): 3253.29 M⁻¹ s⁻¹

Substance: SGPRS-LKSTA
- relative probability (RP) (MMP-9 [1]): 44.7764
- Kobs (MMP-2): 12792.1 M⁻¹ s⁻¹
- Kobs (MMP-9 [2]): 12792.1 M⁻¹ s⁻¹

Substance: SGPRS-WTNTA
- relative probability (RP) (MMP-9 [1]): 40.7744
- Kobs (MMP-2): 5889.62 M⁻¹ s⁻¹
- Kobs (MMP-9 [2]): 5090.5 M⁻¹ s⁻¹

Substance: SGPRT-LVVTA
- relative probability (RP) (MMP-9 [1]): 42.2705
- Kobs (MMP-2): 12792.1 M⁻¹ s⁻¹
- Kobs (MMP-9 [2]): 12792.1 M⁻¹ s⁻¹

Substance: SGPRW-LMSTA
- relative probability (RP) (MMP-9 [1]): 47.776
- Kobs (MMP-2): 12792.1 M⁻¹ s⁻¹
- Kobs (MMP-9 [2]): 12792.1 M⁻¹ s⁻¹

Substance: SGPSA-LDATA
- relative probability (RP) (MMP-9 [1]): 47.6113
- Kobs (MMP-2): 5269.78 M⁻¹ s⁻¹
- Kobs (MMP-9 [2]): 799.117 M⁻¹ s⁻¹

Substance: SGPSG-WTATA
- relative probability (RP) (MMP-9 [1]): 29.7011
- Kobs (MMP-2): 7815.03 M⁻¹ s⁻¹
- Kobs (MMP-9 [2]): 6131.32 M⁻¹ s⁻¹

Substance: SGPSH-WIGTA
- relative probability (RP) (MMP-9 [1]): 19.8718
- Kobs (MMP-2): 12792.1 M⁻¹ s⁻¹
- Kobs (MMP-9 [2]): 7015.91 M⁻¹ s⁻¹

Substance: SGPSR-LTFTA
- relative probability (RP) (MMP-9 [1]): 39.8157
- Kobs (MMP-2): 12792.1 M⁻¹ s⁻¹
- Kobs (MMP-9 [2]): 12792.1 M⁻¹ s⁻¹

Substance: SGPSW-IMRTA
- relative probability (RP) (MMP-9 [1]): 43.303
- Kobs (MMP-2): 12792.1 M⁻¹ s⁻¹
- Kobs (MMP-9 [2]): 12792.1 M⁻¹ s⁻¹

Substance: SGPVA-MTKTA
- relative probability (RP) (MMP-9 [1]): 44.6624
- Kobs (MMP-2): 1418.96 M⁻¹ s⁻¹
- Kobs (MMP-9 [2]): 6396.07 M⁻¹ s⁻¹

Substance: SGPVH-MWNTA
- relative probability (RP) (MMP-9 [1]): 35.975
- Kobs (MMP-2): 1154.21 M⁻¹ s⁻¹
- Kobs (MMP-9 [2]): 1154.21 M⁻¹ s⁻¹

Substance: SGPVS-MRYTA
- relative probability (RP) (MMP-9 [1]): 41.2029
- Kobs (MMP-2): 12792.1 M⁻¹ s⁻¹
- Kobs (MMP-9 [2]): 7015.91 M⁻¹ s⁻¹

Substance: SGPWA-ITGTA
- relative probability (RP) (MMP-9 [1]): 50.8721
- Kobs (MMP-2): 12792.1 M⁻¹ s⁻¹
- Kobs (MMP-9 [2]): 12792.1 M⁻¹ s⁻¹

Substance: SGPYS-WQVTA
- relative probability (RP) (MMP-9 [1]): 33.8051
- Kobs (MMP-2): 1513.13 M⁻¹ s⁻¹
- Kobs (MMP-9 [2]): 4613.14 M⁻¹ s⁻¹

Substance: SGVAG-LYSTA
- relative probability (RP) (MMP-9 [1]): 21.512
- Kobs (MMP-2): 12792.1 M⁻¹ s⁻¹
- Kobs (MMP-9 [2]): 7015.91 M⁻¹ s⁻¹

Substance: SGVAW-LKHTA
- relative probability (RP) (MMP-9 [1]): 35.286
- Kobs (MMP-2): 12792.1 M⁻¹ s⁻¹
- Kobs (MMP-9 [2]): 4205.91 M⁻¹ s⁻¹

Substance: SGVKG-MYSTA
- relative probability (RP) (MMP-9 [1]): 17.5008
- Kobs (MMP-2): 4335.13 M⁻¹ s⁻¹
- Kobs (MMP-9 [2]): 7815.03 M⁻¹ s⁻¹
